Measurements: ChEMBL document CHEMBL1201862, “PubChem BioAssay data set” (2004)
One block for each compound: values may come before it. The source made the active and inactive calls.

Assays:
Cytochrome P450 2C9 = Cytochrome P450 2C9 (Homo sapiens, UniProt P11712)
Cytochrome P450 1A2 = target: T1, Cytochrome P450 1A2 (Homo sapiens, UniProt P05177);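 further: PubChem cytochrome P450 panel assay, CYP1A2 panel member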
T1 sequence (P05177 whole entry): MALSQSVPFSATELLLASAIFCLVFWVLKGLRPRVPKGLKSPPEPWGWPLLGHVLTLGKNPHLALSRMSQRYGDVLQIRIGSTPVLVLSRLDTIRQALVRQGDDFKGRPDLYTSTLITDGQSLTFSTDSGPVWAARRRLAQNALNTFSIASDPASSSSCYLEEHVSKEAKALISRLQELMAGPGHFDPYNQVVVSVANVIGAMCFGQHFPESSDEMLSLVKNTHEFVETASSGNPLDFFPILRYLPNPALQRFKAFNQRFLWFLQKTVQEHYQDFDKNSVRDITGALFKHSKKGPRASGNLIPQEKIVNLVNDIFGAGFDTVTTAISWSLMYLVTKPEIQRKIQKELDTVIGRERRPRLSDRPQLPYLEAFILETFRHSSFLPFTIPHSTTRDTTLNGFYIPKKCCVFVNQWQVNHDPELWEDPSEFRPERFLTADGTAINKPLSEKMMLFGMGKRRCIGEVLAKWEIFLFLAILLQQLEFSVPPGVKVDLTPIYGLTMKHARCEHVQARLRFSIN

Cytochrome P450 2D6 = Cytochrome P450 2D6 (Homo sapiens, UniProt P10635);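 further: CYP2D6 member of a cytochrome P450 panel assay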
Sequence of Cytochrome P450 2D6 (P10635 whole entry): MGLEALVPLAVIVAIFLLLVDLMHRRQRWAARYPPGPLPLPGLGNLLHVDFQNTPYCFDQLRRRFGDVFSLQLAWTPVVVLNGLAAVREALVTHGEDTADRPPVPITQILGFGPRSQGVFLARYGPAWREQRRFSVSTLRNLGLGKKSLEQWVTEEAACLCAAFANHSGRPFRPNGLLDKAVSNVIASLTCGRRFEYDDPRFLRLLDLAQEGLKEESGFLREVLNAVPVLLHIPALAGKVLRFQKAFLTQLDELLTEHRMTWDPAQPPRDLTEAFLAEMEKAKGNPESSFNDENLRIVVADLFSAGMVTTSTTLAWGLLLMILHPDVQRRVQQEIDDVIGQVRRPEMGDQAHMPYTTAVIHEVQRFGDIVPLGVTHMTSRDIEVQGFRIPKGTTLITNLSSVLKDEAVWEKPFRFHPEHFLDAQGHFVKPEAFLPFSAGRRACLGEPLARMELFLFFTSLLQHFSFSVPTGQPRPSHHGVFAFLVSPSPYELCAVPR

[1] = target: T2, Rac GTPase-activating protein 1 (Homo sapiens, UniProt Q9H0H5); test: blockers of MgcRacGAP-driven Rac1 GTP hydrolysis – biochemical, ADP Hunter fluorescence, primary and confirmatory, confirmation (AID 624330); format: functional
T2 sequence (Q9H0H5 whole entry): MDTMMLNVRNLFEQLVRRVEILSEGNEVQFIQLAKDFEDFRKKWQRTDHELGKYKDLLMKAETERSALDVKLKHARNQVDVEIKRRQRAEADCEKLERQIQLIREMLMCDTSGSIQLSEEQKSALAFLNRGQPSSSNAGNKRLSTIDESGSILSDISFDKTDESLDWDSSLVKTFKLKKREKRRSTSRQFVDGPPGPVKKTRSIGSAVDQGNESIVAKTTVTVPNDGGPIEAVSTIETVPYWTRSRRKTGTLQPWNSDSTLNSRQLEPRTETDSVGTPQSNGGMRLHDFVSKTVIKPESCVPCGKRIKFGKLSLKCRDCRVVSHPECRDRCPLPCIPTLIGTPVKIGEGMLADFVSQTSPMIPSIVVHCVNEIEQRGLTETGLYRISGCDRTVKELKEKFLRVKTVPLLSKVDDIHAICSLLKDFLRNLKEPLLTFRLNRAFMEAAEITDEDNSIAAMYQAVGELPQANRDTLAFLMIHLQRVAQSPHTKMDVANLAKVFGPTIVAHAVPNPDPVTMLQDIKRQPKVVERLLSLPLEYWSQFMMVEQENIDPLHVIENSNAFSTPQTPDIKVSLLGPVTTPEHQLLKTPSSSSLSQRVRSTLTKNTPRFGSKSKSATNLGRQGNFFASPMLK

Cytochrome P450 2C19 = Cytochrome P450 2C19 (Homo sapiens, UniProt P33261); test: Cytochrome panel assay with activity outcomes. Panel member name: p450-cyp2c19 Compounds with AC50 equal or less than 10 uM are considered active; format: functional
Sequence of Cytochrome P450 2C19 (P33261 whole entry): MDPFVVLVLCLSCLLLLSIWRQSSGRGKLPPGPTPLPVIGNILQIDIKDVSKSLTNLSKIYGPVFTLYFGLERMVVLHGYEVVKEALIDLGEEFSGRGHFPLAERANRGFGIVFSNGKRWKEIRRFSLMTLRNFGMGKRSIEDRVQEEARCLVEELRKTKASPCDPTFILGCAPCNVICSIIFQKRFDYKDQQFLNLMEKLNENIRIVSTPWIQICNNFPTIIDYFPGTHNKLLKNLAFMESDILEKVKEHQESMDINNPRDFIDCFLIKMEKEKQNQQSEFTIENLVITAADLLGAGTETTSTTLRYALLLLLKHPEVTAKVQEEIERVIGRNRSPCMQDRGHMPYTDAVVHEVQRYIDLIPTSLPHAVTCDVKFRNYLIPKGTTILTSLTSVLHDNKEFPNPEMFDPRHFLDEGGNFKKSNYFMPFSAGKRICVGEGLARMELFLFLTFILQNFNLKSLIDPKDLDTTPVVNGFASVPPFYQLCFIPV

Sequence of Cytochrome P450 2C9 (P11712 whole entry): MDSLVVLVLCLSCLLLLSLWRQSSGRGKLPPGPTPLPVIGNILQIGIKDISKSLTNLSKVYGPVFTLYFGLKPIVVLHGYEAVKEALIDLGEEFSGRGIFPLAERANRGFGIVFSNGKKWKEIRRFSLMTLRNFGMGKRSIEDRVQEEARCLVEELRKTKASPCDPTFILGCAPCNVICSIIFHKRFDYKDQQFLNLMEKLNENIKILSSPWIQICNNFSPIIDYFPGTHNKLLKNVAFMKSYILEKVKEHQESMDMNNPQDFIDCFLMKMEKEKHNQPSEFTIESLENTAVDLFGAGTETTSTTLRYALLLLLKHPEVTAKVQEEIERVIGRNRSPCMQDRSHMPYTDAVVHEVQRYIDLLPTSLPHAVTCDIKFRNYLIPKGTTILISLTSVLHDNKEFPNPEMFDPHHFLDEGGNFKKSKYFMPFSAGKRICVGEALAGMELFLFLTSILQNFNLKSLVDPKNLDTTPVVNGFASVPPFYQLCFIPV

Compound: O=C(c1ccncc1)N1CCC2(CC1)CCN(c1cccc(-c3ccccc3)c1)CC2
AC50 (Cytochrome P450 2C9): 12.6 µM (inconclusive)
AC50 (Cytochrome P450 1A2): 20 µM (inconclusive)

Compound: COc1ccccc1N1CCN(CCN(C(=O)C2CCCCC2)c2ccccn2)CC1 [WAY-100,635]
AC50 (Cytochrome P450 2D6): 31.6 µM (inconclusive)

Compound: COc1ccc(NCc2nnc(SCc3ccccc3)n2-c2ccc(OC)cc2)cc1
AC50 (Cytochrome P450 2C9): 12.6 µM (inconclusive)
AC50 (Cytochrome P450 1A2): 17.8 µM (inconclusive)

Compound: COc1cc(/C=N/NC(=O)C2CCN(CC(O)COCc3ccccc3)CC2)ccc1O (configuration not stated)
IC50 [1]: 31.5 µM (active)

Compound: COC(=O)[C@@]1(Cc2ccccc2)[C@H]2c3cc(C(=O)N4CCCC4)n(Cc4ccccn4)c3C[C@H]2CN1C(=O)c1ccccc1
AC50 (Cytochrome P450 2D6): 39.8 µM (inconclusive)

Compound: O=C(c1cnccn1)N1CCC2(CCCN(c3cccc(-c4ccccc4)c3)C2)CC1
AC50 (Cytochrome P450 2C19; read-out: AC50): 7.94 µM (inconclusive)

Compound: CC(C(=O)NCC(=O)Nc1ccc(F)c(F)c1F)N1CCN(c2ccc(O)cc2)CC1 (configuration not stated)
IC50 [1]: 42.5 µM (active)

Compound: O=C(NCc1ccccc1)/C(=C\c1ccc(O)cc1)NC(=O)c1ccco1
IC50 [1]: 141 µM (active)

Compound: COc1ccccc1NC(=O)CN1CCN(CC(=O)Nc2ccc(OCc3ccccc3)cc2)CC1
AC50 (Cytochrome P450 1A2): 10 µM (inconclusive)
AC50 (Cytochrome P450 2D6): 20 µM (inconclusive)

Compound: CN1CCN(C(=O)C(C(=O)c2ccc(F)cc2)n2ccccc2=O)CC1 (configuration not stated)
AC50 (Cytochrome P450 2C19): inconclusive

Compound: CN(CCCCCCN(C)Cc1ccccc1O)Cc1ccccc1O
IC50 [1]: 73.6 µM (active)

Compound: O=C(ON=C1CCN(S(=O)(=O)c2ccccc2)CC1)c1ccccc1
AC50 (Cytochrome P450 2C9): 31.6 µM (inconclusive)

Compound: O=c1cc(-c2ccc(O)c(O)c2)oc2cc(O)c([C@@H]3O[C@H](CO)[C@@H](O)[C@H](O)[C@H]3O)c(O)c12 [ISOORIENTIN]
IC50 [1]: 40.9 µM (active)

Compound: Cc1cc(C)cc(-n2c(C)cc(C=C(C#N)C#N)c2C)c1
AC50 (Cytochrome P450 2C9): 2.51 µM (inconclusive)

Compound: Cc1cc(OCc2nc3ccccc3s2)ccc1N
IC50 [1]: 60.7 µM (active)

Compound: Cc1ccc2c(CC(=O)OCc3cc(=O)n4c(n3)sc3ccccc34)coc2c1
AC50 (Cytochrome P450 2D6): 31.6 µM (inconclusive)

Compound: COc1cc(CNCc2cc(OC)c(OC)c(OC)c2)cc(OC)c1
IC50 [1]: 203 µM (active)

Compound: COc1ccc(C(=O)NC2CC3CCCC(C2)N3CC(C)C)cc1OC (configuration not stated)
AC50 (Cytochrome P450 2C9): 22.4 µM (inconclusive)

Compound: Nc1nc(N)c(CCCCc2ccccc2)c(N)n1
AC50 (Cytochrome P450 2D6): 3.98 µM (inconclusive)

Compound: Cc1ccc(C(=O)Oc2cc(C)n(C)c(=O)c2)cc1
AC50 (Cytochrome P450 2C9): 11.2 µM (inconclusive)
AC50 (Cytochrome P450 1A2): 25.1 µM (inconclusive)

Compound: COc1cc(/C=N/NC(=O)c2[nH]nc3c2CCc2ccccc2-3)ccc1O
IC50 [1]: 54.3 µM (active)

Compound: Cn1cccc1C(=O)N1CCC2(CC1)CCN(c1ccncc1)CC2
AC50 (Cytochrome P450 1A2): 15.8 µM (inconclusive)
AC50 (Cytochrome P450 2D6): 25.1 µM (inconclusive)

Compound: Cn1c(=O)c(C(=O)CN2CCOCC2)c(N)n(Cc2ccccc2)c1=O
AC50 (Cytochrome P450 2D6): 7.94 µM (inconclusive)
AC50 (Cytochrome P450 2C19; read-out: AC50): 39.8 µM (inconclusive)

Compound: Cc1cccn2c(S)nnc12
IC50 [1]: 17.2 µM (active)

Compound: Cn1cc(C(=O)c2cccc(Cl)c2Cl)cc1C(=O)O
AC50 (Cytochrome P450 2C9): 31.6 µM (inconclusive)

Compound: COC(=O)CSc1nnc(CNc2ccc(Cl)cc2)n1-c1ccccc1
AC50 (Cytochrome P450 2C9): 22.4 µM (inconclusive)

Compound: O=C(CSc1nc2ccccc2s1)NNC(=S)Nc1ccc(Br)cc1
AC50 (Cytochrome P450 2D6): 3.55 µM (inconclusive)

Next, values leading:

IC50 [1]: 95.3 µM (active)
Compound: CC(C)Oc1ccc(OCCn2c(S)nc3c(N)ncnc32)cc1

AC50 (Cytochrome P450 2C19; read-out: AC50): 3.55 µM (inconclusive)
Compound: Fc1ccc(-c2ccnc3nc(N4CCOCC4)nn23)cc1

IC50 [1]: 46.4 µM (active)
Compound: COc1cc(-c2nc3cnccn3c2Nc2c(C)cccc2C)ccc1O

AC50 (Cytochrome P450 1A2): 15.8 µM (inconclusive)
AC50 (Cytochrome P450 2D6): 39.8 µM (inconclusive)
Compound: Cc1ccccc1-c1cncnc1NCCN1CCOCC1

AC50 (Cytochrome P450 2C19; read-out: AC50): 15.8 µM (inconclusive)
Compound: Cc1noc(C)c1-c1cc(N(C)Cc2ccco2)ncn1

AC50 (Cytochrome P450 2C9): 15.8 µM (inconclusive)
AC50 (Cytochrome P450 1A2): 15.8 µM (inconclusive)
AC50 (Cytochrome P450 2D6): 1 µM (inconclusive)
Compound: CCOc1ccccc1C1C(C(N)=O)=C(C)Nc2nc(-c3ccc(OC)cc3)nn21 (configuration not stated)

AC50 (Cytochrome P450 2C9): 28.2 µM (inconclusive)
AC50 (Cytochrome P450 2C19; read-out: AC50): 8.91 µM (inconclusive)
Compound: COc1cc(/C=N/NC(=O)c2cccnc2)ccc1OC(=O)c1ccco1

AC50 (Cytochrome P450 2C19; read-out: AC50): 15.8 µM (inconclusive)
Compound: COc1ccccc1CNc1cc(-c2cccnc2)ncn1

AC50 (Cytochrome P450 1A2): 1.12 µM (inconclusive)
AC50 (Cytochrome P450 2D6): 15.8 µM (inconclusive)
AC50 (Cytochrome P450 2C19; read-out: AC50): 15.8 µM (inconclusive)
Compound: c1ccc2c(c1)ncn2Cc1nnc2sc(-c3ccc4c(c3)OCO4)nn12

AC50 (Cytochrome P450 2D6): 39.8 µM (inconclusive)
Compound: CN(C)c1ccc(-c2cncnc2-n2ccnc2)cc1

AC50 (Cytochrome P450 2D6): 17.8 µM (inconclusive)
Compound: COc1cccc(/C=N/NC(=O)c2c(-c3ccccc3)noc2C)c1

IC50 [1]: 68.7 µM (active)
Compound: Cc1cccn2c(NCc3ccc4c(c3)OCO4)c(-c3ccc(O)cc3)nc12

AC50 (Cytochrome P450 2D6): 39.8 µM (inconclusive)
AC50 (Cytochrome P450 2C19; read-out: AC50): 25.1 µM (inconclusive)
Compound: CN(C)C(=O)c1ccc(-c2nc(NCc3ccccc3)c3ccccc3n2)cc1

AC50 (Cytochrome P450 2D6): 15.8 µM (inconclusive)
Compound: c1ccc2c(Nc3ccncc3)nc(-c3ccoc3)nc2c1

AC50 (Cytochrome P450 2D6): 31.6 µM (inconclusive)
Compound: Cc1ccccc1-c1cc(NCc2ccccc2)ncn1

AC50 (Cytochrome P450 2C9): 12.6 µM (inconclusive)
AC50 (Cytochrome P450 2C19; read-out: AC50): 8.91 µM (inconclusive)
Compound: COc1ccc(-n2ncc3c(NCC4CCCO4)ncnc32)cc1 (configuration not stated)
